12 compounds from US20240150377A1, “MODULATORS OF CYSTIC FIBROSIS TRANSMEMBRANE CONDUCTANCE REGULATOR” (VERTEX PHARMACEUTICALS INCORPORATED, priority 2020, published 2024) can be followed below.

By EC50 is commonly meant the concentration giving half of the maximal effect.

Read-outs that look alike come from different tables or passages of the source. A value given as a limit tells only on which side of the number the result lay.

The conditions of data set [1]: amide bond, 13-membered ring.
A further data set concerns the target T1, CFTR (Homo sapiens, UniProt P13569, DEL508-508).
T1 construct: endogenous in cells; host or cells: primary human bronchial epithelial cells from CF subjects (F508del/MF-HBE), differentiated at air-liquid interface
Description: HBE assay: Ussing chamber assay of CFTR-mediated short-circuit currents. Format: cell-based. The note with it: for EC50: read-out: HBE EC50. The method, boiled down: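 CFTR-mediated Isc (μA/cm²) equals the peak response to apical 20 μM forskolin minus the residual after a 20 μM each BPO/GlyH-101/CFTR inhibitor 172 cocktail, recorded in Ussing chambers at Vhold 0 mV, 37 °C, pH 7.4, with 30 μM apical amiloride. Cells were F508del/MF HBE cultures preincubated 18-24 h with corrector (concentration range or 10 μM) plus 1 μM ivacaftor in 20% human serum.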

The mark [2] stands for this setting: Table 11, read-out: HBE Max Activity (%).
Setting [3] is: Table 10, read-out: HBE Max activity (%).
Where [4] appears, read: Table 11, read-out: HBE Activity at 10 μM (%).

T1 sequence (P13569 with tags, fused parts or gaps DEL508-508): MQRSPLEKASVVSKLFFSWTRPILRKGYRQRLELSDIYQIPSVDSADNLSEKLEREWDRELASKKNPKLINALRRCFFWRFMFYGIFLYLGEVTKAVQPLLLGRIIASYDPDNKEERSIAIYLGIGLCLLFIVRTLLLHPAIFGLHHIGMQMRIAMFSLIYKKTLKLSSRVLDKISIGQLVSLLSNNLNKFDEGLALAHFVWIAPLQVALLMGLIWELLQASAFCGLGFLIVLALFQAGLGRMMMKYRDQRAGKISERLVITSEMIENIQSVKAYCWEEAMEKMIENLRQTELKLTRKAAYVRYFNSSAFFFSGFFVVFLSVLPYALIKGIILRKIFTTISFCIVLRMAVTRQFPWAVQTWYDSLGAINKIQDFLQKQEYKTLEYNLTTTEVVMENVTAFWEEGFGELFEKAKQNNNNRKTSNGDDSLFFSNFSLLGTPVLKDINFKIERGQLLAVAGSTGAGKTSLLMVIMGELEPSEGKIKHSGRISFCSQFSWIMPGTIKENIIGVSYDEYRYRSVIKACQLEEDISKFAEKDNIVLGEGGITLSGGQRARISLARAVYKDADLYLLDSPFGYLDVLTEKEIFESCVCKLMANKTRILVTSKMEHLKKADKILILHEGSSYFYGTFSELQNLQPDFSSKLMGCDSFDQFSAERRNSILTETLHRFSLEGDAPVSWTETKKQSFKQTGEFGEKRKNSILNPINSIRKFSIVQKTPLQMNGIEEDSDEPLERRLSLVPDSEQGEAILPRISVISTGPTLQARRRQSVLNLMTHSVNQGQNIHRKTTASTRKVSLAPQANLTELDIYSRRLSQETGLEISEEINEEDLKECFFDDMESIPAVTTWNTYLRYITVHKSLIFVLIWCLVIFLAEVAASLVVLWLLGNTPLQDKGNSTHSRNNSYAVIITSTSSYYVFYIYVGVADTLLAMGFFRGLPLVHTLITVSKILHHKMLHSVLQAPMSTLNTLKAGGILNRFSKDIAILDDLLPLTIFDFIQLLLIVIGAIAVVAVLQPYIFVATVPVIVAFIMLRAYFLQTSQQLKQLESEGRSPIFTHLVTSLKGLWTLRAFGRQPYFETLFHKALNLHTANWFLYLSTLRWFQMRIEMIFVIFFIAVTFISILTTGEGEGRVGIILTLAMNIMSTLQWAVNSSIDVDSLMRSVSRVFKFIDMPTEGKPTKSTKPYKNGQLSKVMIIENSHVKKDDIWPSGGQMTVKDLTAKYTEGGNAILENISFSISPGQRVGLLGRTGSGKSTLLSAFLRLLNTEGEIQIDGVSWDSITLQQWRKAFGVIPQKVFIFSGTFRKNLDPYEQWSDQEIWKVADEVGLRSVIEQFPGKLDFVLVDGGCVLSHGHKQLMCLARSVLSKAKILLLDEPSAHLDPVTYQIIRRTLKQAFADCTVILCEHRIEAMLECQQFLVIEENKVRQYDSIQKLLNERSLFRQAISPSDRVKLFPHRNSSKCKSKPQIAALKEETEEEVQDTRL

For the compound `Cc1cccc(C(C)C)c1-c1cc2nc(n1)NS(=O)(=O)c1cccc(c1)C(=O)N(Cc1ncc(N3CCOCC3)cn1)[C@H](CC(C)(C)C)CO2` [Compound 6, (11R)-11-(2,2-Dimethylpropyl)-6-[2-methyl-6-(propan-2-yl)phenyl]-12-{[5-(morpholin-4-yl)pyrimidin-2-yl]methyl}-9-oxa-2λ^6-thia-3,5,12,19-tetraazatricyclo[12.3.1.14,8]nonadeca-1(17),4(19),5,7,14(18),15-hexaene-2,2,13-trione], the ring closure, yield after HPLC in data set [1] (from Cc1cccc(C(C)C)c1-c1cc(OC[C@@H](CC(C)(C)C)NCc2ncc(N3CCOCC3)cn2)nc(NS(=O)(=O)c2cccc(C(=O)O)c2)n1, CDMT/NMM, DMF, 54.0 mM, 25.0 °C, 60.0 h, 2 steps) stood at 21%. Besides, the EC50 on CFTR (Table 11) was < 1 µM. The Emax at CFTR (setting [2]) is > 60%.
For the compound `Cc1cc(N2CCOCC2)cnc1CN1C(=O)c2cccc(c2)S(=O)(=O)Nc2nc(cc(-c3c(C)cccc3C)n2)OC[C@H]1CC(C)(C)C` [Compound 57, (11R)-6-(2,6-Dimethylphenyl)-11-(2,2-dimethylpropyl)-12-[(3-methyl-5-morpholino-2-pyridyl)methyl]-2,2-dioxo-9-oxa-2λ^6-thia-3,5,12,19-tetrazatricyclo[12.3.1.14,8]nonadeca-1(18),4(19),5,7,14,16-hexaen-13-one], the ring closure, yield after HPLC in data set [1] (from Cc1cc(N2CCOCC2)cnc1CN[C@@H](COc1cc(-c2c(C)cccc2C)nc(NS(=O)(=O)c2cccc(C(=O)O)c2)n1)CC(C)(C)C, CDMT/NMM, DMF, 25.0 °C, 3.5 h, 2 steps) is 19%. Besides, on CFTR (Table 10), the EC50 is < 1 µM. At CFTR (setting [3]), the Emax is > 60%.
Turning to `Cc1cc(C)nc(CN2C(=O)c3cccc(c3)S(=O)(=O)Nc3nc(cc(-c4c(C)cccc4C)n3)OC[C@H]2CC(C)(C)C)c1` [Compound 55, (11R)-6-(2,6-Dimethylphenyl)-11-(2,2-dimethylpropyl)-12-[(4,6-dimethylpyridin-2-yl)methyl]-9-oxa-2λ^6-thia-3,5,12,19-tetraazatricyclo[12.3.1.14,8]nonadeca-1(18),4,6,8(19),14,16-hexaene-2,2,13-trione], the ring closure, yield after HPLC in data set [1] (from 3-[[4-(2,6-dimethylphenyl)-6-[(2R)-2-[(4,6-dimethyl-2-pyridyl)methylamino]-4,4-dimethyl-pentoxy]pyrimidin-2-yl]sulfamoyl]benzoic acid (Dihydrochloride salt), CDMT/NMM, DMF, 42.2 mM, 25.0 °C) came to 44%. The EC50 on CFTR (Table 11) was < 1 µM. Moreover, the Emax at CFTR (setting [2]) was > 60%.
`Cc1cccc(C)c1-c1cc2nc(n1)NS(=O)(=O)c1cccc(c1)C(=O)N(Cc1cc(C(C)(C)C)[nH]n1)[C@H](CC(C)(C)C)CO2` [Compound 134, (11R)-12-[(5-tert-Butyl-1H-pyrazol-3-yl)methyl]-6-(2,6-dimethylphenyl)-11-(2,2-dimethylpropyl)-2,2-dioxo-9-oxa-2λ^6-thia-3,5,12,19-tetrazatricyclo[12.3.1.14,8]nonadeca-1(18),4(19),5,7,14,16-hexaen-13-one] came in with a ring closure, yield after HPLC in data set [1] (from Cc1cccc(C)c1-c1cc(OC[C@@H](CC(C)(C)C)NCc2cc(C(C)(C)C)[nH]n2)nc(NS(=O)(=O)c2cccc(C(=O)O)c2)n1, CDMT/NMM, DMF, 3.0 h, 2 steps) of 20%. In addition, the EC50 at CFTR (Table 10) is < 1 µM. The Emax at CFTR (setting [3]) is > 60%.
Turning to `Cc1cccc(C)c1-c1cc2nc(n1)NS(=O)(=O)c1cccc(c1)C(=O)N(Cc1ncc(N(C)CC(C)(C)C)cn1)[C@H](CC(C)(C)C)CO2` [Compound 115, (11R)-6-(2,6-Dimethylphenyl)-11-(2,2-dimethylpropyl)-12-[[5-[2,2-dimethylpropyl(methyl)amino]pyrimidin-2-yl]methyl]-2,2-dioxo-9-oxa-2λ^6-thia-3,5,12,19-tetrazatricyclo[12.3.1.14,8]nonadeca-1(18),4(19),5,7,14,16-hexaen-13-one], in data set [1] (from 3-[[4-(2,6-dimethylphenyl)-6-[(2R)-2-[[5-[2,2-dimethylpropyl(methyl)amino]pyrimidin-2-yl]methylamino]-4,4-dimethyl-pentoxy]pyrimidin-2-yl]sulfamoyl]benzoic acid (Dihydrochloride salt), HATU/DIEA, DMF, 19.3 mM, 25.0 °C), the ring closure, yield after HPLC is 50%. In addition, the EC50 at CFTR (Table 10) was < 1 µM. In addition, at CFTR (setting [3]), the Emax was > 60%.
Take `Cc1cccc(C)c1-c1cc2nc(n1)NS(=O)(=O)c1cccc(c1)C(=O)N(Cc1ccc3ccccc3n1)[C@H](CC(C)(C)C)CO2` [Compound 58, (11R)-6-(2,6-Dimethylphenyl)-11-(2,2-dimethylpropyl)-2,2-dioxo-12-(2-quinolylmethyl)-9-oxa-2λ^6-thia-3,5,12,19-tetrazatricyclo[12.3.1.14,8]nonadeca-1(18),4(19),5,7,14,16-hexaen-13-one]: the ring closure, yield after HPLC in data set [1] (from 3-[[4-(2,6-dimethylphenyl)-6-[(2R)-4,4-dimethyl-2-(2-quinolylmethylamino)pentoxy]pyrimidin-2-yl]sulfamoyl]benzoic acid (Dihydrochloride salt), HATU/DIEA, DMF, 27.5 mM, 25.0 °C) was 73%. Further, at CFTR (Table 10), the EC50 is < 1 µM. Further, on CFTR (setting [3]), the Emax is > 60%.
Consider `Cc1cccc(C)c1-c1cc2nc(n1)NS(=O)(=O)c1cccc(c1)C(=O)N(Cc1ncc(N3CCC(C)(C)C3)cn1)[C@H](CC(C)(C)C)CO2` [Compound 119, (11R)-6-(2,6-Dimethylphenyl)-11-(2,2-dimethylpropyl)-12-[[5-(3,3-dimethylpyrrolidin-1-yl)pyrimidin-2-yl]methyl]-2,2-dioxo-9-oxa-2λ^6-thia-3,5,12,19-tetrazatricyclo[12.3.1.14,8]nonadeca-1(18),4(19),5,7,14,16-hexaen-13-one], for which, in data set [1] (from 3-[[4-(2,6-dimethylphenyl)-6-[(2R)-2-[[5-(3,3-dimethylpyrrolidin-1-yl)pyrimidin-2-yl]methylamino]-4,4-dimethyl-pentoxy]pyrimidin-2-yl]sulfamoyl]benzoic acid (Dihydrochloride salt), CDMT/NMM, DMF, 29.4 mM), the ring closure, yield after HPLC was found to be 47%. The EC50 at CFTR (Table 11) was in the range of 1 to 3 µM. Moreover, the Emax on CFTR (setting [2]) is > 60%.
Regarding `Cc1cccc(C)c1-c1cc2nc(n1)NS(=O)(=O)c1cccc(c1)C(=O)N(Cc1cnn3ccccc13)[C@H](CC(C)(C)C)CO2` [Compound 139, (11R)-6-(2,6-Dimethylphenyl)-11-(2,2-dimethylpropyl)-12-({pyrazolo[1,5-a]pyridin-3-yl}methyl)-9-oxa-2λ^6-thia-3,5,12,19-tetraazatricyclo[12.3.1.14,8]nonadeca-1(17),4,6,8(19),14(18),15-hexaene-2,2,13-trione], in data set [1] (from Cc1cccc(C)c1-c1cc(OC[C@@H](CC(C)(C)C)NCc2cnn3ccccc23)nc(NS(=O)(=O)c2cccc(C(=O)O)c2)n1, HATU/DIEA, DMF, 29.4 mM, 4.0 h), the ring closure, yield after HPLC is 57%. On CFTR (Table 10, read-out: HBE activity at 10 (μM) (%)), the activation at 10 µM is > 60%.
On to `Cc1cccc(C)c1-c1cc2nc(n1)NS(=O)(=O)c1cccc(c1)C(=O)N(Cc1cn(C)nn1)[C@H](CC(C)(C)C)CO2` [Compound 140, (11R)-6-(2,6-Dimethylphenyl)-11-(2,2-dimethylpropyl)-12-[(1-methyltriazol-4-yl)methyl]-2,2-dioxo-9-oxa-2λ^6-thia-3,5,12,19-tetrazatricyclo[12.3.1.14,8]nonadeca-1(18),4(19),5,7,14,16-hexaen-13-one], for which, in data set [1] (from Cc1cccc(C)c1-c1cc(OC[C@@H](CC(C)(C)C)NCc2cn(C)nn2)nc(NS(=O)(=O)c2cccc(C(=O)O)c2)n1, HATU/DIEA, DMF, 29.1 mM, 15.0 h), the ring closure, yield after HPLC was determined as 25%. The activation at 10 µM at CFTR (setting [4]) was > 60%.
Turning to `Cc1cccc(OCc2ccccc2)c1-c1cc2nc(n1)NS(=O)(=O)c1cccc(c1)C(=O)N(Cc1ccc(N3CCOCC3)cn1)[C@H](CC(C)(C)C)CO2` [Compound 7, (11R)-6-(2-Benzyloxy-6-methyl-phenyl)-11-(2,2-dimethylpropyl)-12-[(5-morpholino-2-pyridyl)methyl]-2,2-dioxo-9-oxa-2λ^6-thia-3,5,12,19-tetrazatricyclo[12.3.1.14,8]nonadeca-1(18),4(19),5,7,14,16-hexaen-13-one], the ring closure, yield after HPLC in data set [1] (from Cc1cccc(OCc2ccccc2)c1-c1cc(OC[C@@H](CC(C)(C)C)NCc2ccc(N3CCOCC3)cn2)nc(NS(=O)(=O)c2cccc(C(=O)O)c2)n1, HATU/TBTU/DMTMM/DIEA, DCM, 3.76 mM, 25.0 °C, 1.0 h) is 22%. Further, the activation at 10 µM on CFTR (setting [4]) was > 60%. For the same compound, the EC50 at CFTR (Table 11) is < 1 µM. The Emax at CFTR (setting [2]) is > 60%.
As for `COCCN(C)c1cnc(CN2C(=O)c3cccc(c3)S(=O)(=O)Nc3nc(cc(-c4c(C)cccc4C)n3)OC[C@H]2CC(C)(C)C)nc1` [Compound 114, (11R)-6-(2,6-Dimethylphenyl)-11-(2,2-dimethylpropyl)-12-[[5-[2-methoxyethyl(methyl)amino]pyrimidin-2-yl]methyl]-2,2-dioxo-9-oxa-2λ^6-thia-3,5,12,19-tetrazatricyclo[12.3.1.14,8]nonadeca-1(18),4(19),5,7,14,16-hexaen-13-one], in data set [1] (from 3-[[4-(2,6-dimethylphenyl)-6-[(2R)-2-[[5-[2-methoxyethyl(methyl)amino]pyrimidin-2-yl]methylamino]-4,4-dimethyl-pentoxy]pyrimidin-2-yl]sulfamoyl]benzoic acid (Dihydrochloride salt), HATU/DIEA, DMF, 10.5 mM, 25.0 °C), the ring closure, yield after HPLC was 53%. For the same compound, the EC50 at CFTR (Table 10) is < 1 µM. At CFTR (setting [3]), the Emax was > 60%.
With `Cc1cccc(C)c1-c1cc2nc(n1)NS(=O)(=O)c1cccc(c1)C(=O)N(Cc1ccc(OC3CCCC3)cn1)[C@H](CC(C)(C)C)CO2` [Compound 49, (11R)-12-[[5-(Cyclopentoxy)-2-pyridyl]methyl]-6-(2,6-dimethylphenyl)-11-(2,2-dimethylpropyl)-2,2-dioxo-9-oxa-2λ^6-thia-3,5,12,19-tetrazatricyclo[12.3.1.14,8]nonadeca-1(18),4(19),5,7,14,16-hexaen-13-one], the ring closure, yield after HPLC in data set [1] (from 3-[[4-[(2R)-2-[[5-(cyclopentoxy)-2-pyridyl]methylamino]-4,4-dimethyl-pentoxy]-6-(2,6-dimethylphenyl)pyrimidin-2-yl]sulfamoyl]benzoic acid (Dihydrochloride salt), HATU/DIEA, DMF, 28.0 mM, 25.0 °C) is 49%. Further, at CFTR (Table 10), the EC50 is 1 to 3 µM. On CFTR (setting [3]), the Emax is > 60%.
